# Literature values in patent publication US20220333169A1, “Polygenic Score for Cardiac Heart Failure” (Henry Ford Health System, priority 2019, published 2022).
# Tested on: heart failure patients
# Settings: one randomized clinical trial
smiles,measurement,value
COc1ccccc1OCCNCC(O)COc1cccc2[nH]c3ccccc3c12 (stereo not shown) [carvedilol],95% confidence interval for change in left ventricular ejection fraction (LVEF),−11.1 to +32.9
